Data on 1 compound can be found in publication PMC7614683, “A small molecule PI3Kα activator for cardioprotection and neuroregeneration” (Nature, 2023).

The target in the assay is T1, PI3Kα N345K mutant (Homo sapiens, UniProt P42336, N345K).
T1 construct: Full-length human p110α was expressed either in a complex with full-length human p85α (for HTS, biochemistry and HDX-MS); 6xHis tag followed by TEV protease site (N); host or cells: Sf9, baculovirus
As to the kind of experiment: ADP-Glo catalytic activity, oncogenic mutant N345K. Type of assay: biochemical. Here is the method:
Expression and purification of wild-type p110α (Cambridge MRC Laboratory for Molecular Biology (LMB-MRC) plasmid number OP831) in a complex with full-length p85α (LMB-MRC plasmid OP809) was performed as described. The oncogenic mutants G106V (LMB-MRC plasmid JB35), N345K (LMB-MRC plasmid OP661) and E545K (LMB-MRC plasmid OP663) were also purified using this protocol. Briefly, 10 litres of Spodoptera frugiperda (Sf9) cell culture at a density of 1.0 x 10^6 cells/ml were co-infected with a p85α-encoding virus [LMB-MRC plasmid OP809]. and a virus encoding p110α with an N-terminal 6xHis tag followed by a tobacco etch virus (TEV) protease site [LMB-MRC plasmid OP831]. After a 48 h infection at 27°C, cells were harvested and washed with PBS. […]
For characterisation of the effects of 1938 on in vitro PI3K enzymology, all reactions were performed at room temperature with 384 white-polystyrene plates (Corning #3574). […] Data was expressed as velocity (nmol of ADP generated/nmol of enzyme/sec). […] Luminescence was read using a PHERAstar® plate reader with software version 5.41, and analyses were performed using GraphPad Prism 8/9.
(ADP-Glo first removes unused ATP, then detects ADP through luciferase.)

T1 sequence (P42336 whole entry N345K): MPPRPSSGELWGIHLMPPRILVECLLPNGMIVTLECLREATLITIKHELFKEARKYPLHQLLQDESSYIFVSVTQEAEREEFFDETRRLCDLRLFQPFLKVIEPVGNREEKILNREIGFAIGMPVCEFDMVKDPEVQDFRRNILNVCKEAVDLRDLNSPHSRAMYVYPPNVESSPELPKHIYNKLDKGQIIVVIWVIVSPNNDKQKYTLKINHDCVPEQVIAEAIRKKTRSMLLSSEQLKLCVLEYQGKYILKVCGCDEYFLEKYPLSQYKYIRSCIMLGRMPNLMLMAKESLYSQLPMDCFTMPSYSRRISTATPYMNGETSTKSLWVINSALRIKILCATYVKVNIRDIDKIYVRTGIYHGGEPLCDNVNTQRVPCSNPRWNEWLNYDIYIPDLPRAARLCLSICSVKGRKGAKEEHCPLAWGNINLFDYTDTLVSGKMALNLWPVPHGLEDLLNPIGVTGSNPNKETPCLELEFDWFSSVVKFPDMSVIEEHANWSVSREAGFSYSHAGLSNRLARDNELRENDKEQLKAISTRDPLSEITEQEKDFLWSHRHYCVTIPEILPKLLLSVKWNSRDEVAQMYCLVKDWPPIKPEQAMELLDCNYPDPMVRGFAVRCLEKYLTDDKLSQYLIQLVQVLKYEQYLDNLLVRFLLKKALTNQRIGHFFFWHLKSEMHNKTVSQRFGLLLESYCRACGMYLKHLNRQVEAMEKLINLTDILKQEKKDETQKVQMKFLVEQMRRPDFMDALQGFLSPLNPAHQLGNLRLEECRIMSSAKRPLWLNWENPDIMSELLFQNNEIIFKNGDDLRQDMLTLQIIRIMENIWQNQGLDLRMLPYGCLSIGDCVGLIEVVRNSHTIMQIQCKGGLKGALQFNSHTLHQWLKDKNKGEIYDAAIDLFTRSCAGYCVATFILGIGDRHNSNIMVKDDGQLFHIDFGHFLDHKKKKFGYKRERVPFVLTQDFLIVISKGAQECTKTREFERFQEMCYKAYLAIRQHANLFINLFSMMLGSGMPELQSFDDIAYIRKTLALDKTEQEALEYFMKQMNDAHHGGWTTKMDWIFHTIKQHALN
T1 sequence (P27986 whole entry partner): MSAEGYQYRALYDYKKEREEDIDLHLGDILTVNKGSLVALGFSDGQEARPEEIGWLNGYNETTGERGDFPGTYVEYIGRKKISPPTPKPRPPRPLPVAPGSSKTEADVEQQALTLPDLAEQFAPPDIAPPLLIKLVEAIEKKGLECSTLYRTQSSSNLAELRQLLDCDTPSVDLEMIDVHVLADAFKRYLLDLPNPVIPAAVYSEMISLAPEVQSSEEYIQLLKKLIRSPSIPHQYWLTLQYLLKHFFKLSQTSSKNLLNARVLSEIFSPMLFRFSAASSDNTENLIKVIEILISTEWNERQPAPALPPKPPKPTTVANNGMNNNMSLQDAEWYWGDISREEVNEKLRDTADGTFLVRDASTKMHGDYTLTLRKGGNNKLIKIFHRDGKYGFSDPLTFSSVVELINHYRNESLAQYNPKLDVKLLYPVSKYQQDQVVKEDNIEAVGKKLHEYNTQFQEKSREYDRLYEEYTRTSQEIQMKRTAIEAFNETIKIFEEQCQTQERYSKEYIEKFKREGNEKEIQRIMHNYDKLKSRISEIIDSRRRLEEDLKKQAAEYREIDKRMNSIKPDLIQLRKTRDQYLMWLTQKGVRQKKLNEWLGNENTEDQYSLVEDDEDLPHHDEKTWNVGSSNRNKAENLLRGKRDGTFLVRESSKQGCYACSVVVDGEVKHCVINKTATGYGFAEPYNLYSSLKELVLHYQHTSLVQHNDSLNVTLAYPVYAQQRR

Consider `CCN1CCN(c2ccc(Nc3cc(Nc4cccc5c4N(C(C)=O)CC5)ccn3)cc2)CC1` [Compound 1938], for which the “activation of N345K mutant” value is “levels comparable with stimulation with pY”.
